Tests used:
mice fed a high-fat diet = test: Diet-induced obesity in mice; assay type: in vivo; conditions: high-fat diet days 0 to 4, 10 mg/kg by gavage once daily for four days, versus vehicle control
Procedure: Lean mice (male, approx. 5 weeks of age, purchased from The Jackson Laboratory, Bar Harbor, Me.) were maintained in individual cages at 22° C. on a 12:12 hr light/dark cycle. The “treated” mice (N=12) were administered a Thiazole Derivative (10 mg/kg) by gavage once daily for four consecutive days. Control mice (N=12) were administered vehicle only, once daily for four days. Both control and treated mice were fed a high-fat diet from days 0 to 4 and body weight and food intake was monitored daily. The percent inhibition for weight gain and food intake was calculated by comparing the increase in weight gain and food intake in the treated mice to the increase in weight gain and food intake in the control mice.

[1] = target: T1, H3 receptors, guinea pig brain (Cavia porcellus, UniProt Q9JI35); test: H3-receptor binding assay, guinea pig brain; conditions: guinea pig brain membranes; 3 nM [3H]R-α-methyl histamine or [3H]Nα-methyl histamine, 30° C., 30 min
T1 construct: The source of the H3 receptors in this experiment was guinea pig brain; from tissue; host or cells: guinea pig brain membranes
T1 sequence (Q9JI35 whole entry): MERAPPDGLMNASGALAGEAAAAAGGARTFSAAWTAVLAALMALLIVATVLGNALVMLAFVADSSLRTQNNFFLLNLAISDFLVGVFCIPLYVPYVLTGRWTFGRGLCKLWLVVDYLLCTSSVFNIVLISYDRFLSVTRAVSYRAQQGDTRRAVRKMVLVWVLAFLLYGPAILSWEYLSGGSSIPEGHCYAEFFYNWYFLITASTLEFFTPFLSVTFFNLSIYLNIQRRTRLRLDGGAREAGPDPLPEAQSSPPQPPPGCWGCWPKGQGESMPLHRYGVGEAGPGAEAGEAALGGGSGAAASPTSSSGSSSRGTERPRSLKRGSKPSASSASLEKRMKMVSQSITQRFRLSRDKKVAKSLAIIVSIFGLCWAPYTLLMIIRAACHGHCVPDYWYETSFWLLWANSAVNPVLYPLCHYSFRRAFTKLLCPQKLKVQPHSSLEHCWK
Procedure: (§1) The source of the H3 receptors in this experiment was guinea pig brain. Alternatively, the source of H3 receptors was recombinant human receptor, expressed in HEK-293 (human embryonic kidney) cells.
The animals weighed 400-600 g. The brain tissue was homogenized with a solution of 50 mM Tris, pH 7.5. The final concentration of tissue in the homogenization buffer was 10% w/v. The homogenates were centrifuged at 1,000×g for 10 min. in order to remove clumps of tissue and debris. The resulting supernatants were then centrifuged at 50,000×g for 20 min. in order to sediment the membranes, which were next washed three times in homogenization buffer (50,000×g for 20 min. each). The membranes were frozen and stored at −70° C. until needed.
All compounds to be tested were dissolved in DMSO and then diluted into the binding buffer (50 mM Tris, pH 7.5) such that the final concentration was 2 μg/ml with 0.1% DMSO. Membranes were then added (400 μg of protein, 5 μg in the case of recombinant human receptor) to the reaction tubes. The reaction was started by the addition of 3 nM [^3H]R-α-methyl histamine (8.8 Ci/mmol) or 3 nM [^3H]N^α-methyl histamine (80 Ci/mmol) and continued under incubation at 30° C. for 30 min. Bound ligand was separated from unbound ligand by filtration, and the amount of radioactive ligand bound to the membranes was quantitated by liquid scintillation spectrometry. […]

[2] = target: T2, recombinant human H3 receptor, expressed in HEK-293 cells (Homo sapiens, UniProt Q9Y5N1); test: H3-receptor binding assay, recombinant human receptor; conditions: recombinant human receptor in HEK-293 membranes; 3 nM [3H]R-α-methyl histamine or [3H]Nα-methyl histamine, 30° C., 30 min
T2 construct: expressed in transfected cells; host or cells: HEK-293 (human embryonic kidney) cells
T2 sequence (Q9Y5N1 whole entry): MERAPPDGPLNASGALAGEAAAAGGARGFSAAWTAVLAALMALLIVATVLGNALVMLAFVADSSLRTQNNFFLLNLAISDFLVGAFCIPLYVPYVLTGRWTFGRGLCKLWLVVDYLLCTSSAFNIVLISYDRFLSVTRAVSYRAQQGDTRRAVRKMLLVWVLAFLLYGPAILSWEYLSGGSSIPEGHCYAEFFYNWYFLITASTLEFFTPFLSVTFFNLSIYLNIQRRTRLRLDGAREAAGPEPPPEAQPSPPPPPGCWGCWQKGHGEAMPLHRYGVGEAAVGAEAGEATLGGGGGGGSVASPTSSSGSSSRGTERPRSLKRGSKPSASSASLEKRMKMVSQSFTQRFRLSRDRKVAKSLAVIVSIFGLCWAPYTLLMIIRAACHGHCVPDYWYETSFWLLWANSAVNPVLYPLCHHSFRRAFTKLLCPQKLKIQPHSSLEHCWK
Procedure: as §1
All compounds to be tested were dissolved in DMSO and then diluted into the binding buffer (50 mM Tris, pH 7.5) such that the final concentration was 2 μg/ml with 0.1% DMSO. Membranes were then added (400 μg of protein, 5 μg in the case of recombinant human receptor) to the reaction tubes. The reaction was started by the addition of 3 nM [^3H]R-α-methyl histamine (8.8 Ci/mmol) or 3 nM [^3H]N^α-methyl histamine (80 Ci/mmol) and continued under incubation at 30° C. for 30 min. Bound ligand was separated from unbound ligand by filtration, and the amount of radioactive ligand bound to the membranes was quantitated by liquid scintillation spectrometry. All incubations were performed in duplicate and the standard error was always less than 10%. Compounds that inhibited more than 70% of the specific binding of radioactive ligand to the receptor were serially diluted to determine a Ki (nM).

Ki [1]	Ki [2]	Structure (SMILES)	Food intake Inhibition (%) (mice fed a high-fat diet)	Weight Gain Inhibition (%) (mice fed a high-fat diet)
		Nc1cc(CN2CCC(Oc3ccc(-n4c(-c5ccccn5)nc5cccnc54)cc3)CC2)ccn1 [Compound 4A]	15.9%	74.1%
		CN1CCN(c2ccc(OC3CCN(Cc4ccnc(N)c4)CC3)cc2)CC1 [Compound 22A]	11.2%	42.4%
		Nc1cc(CN2CCC(Oc3ccc(-n4c(C(F)(F)C(F)(F)F)nc5cccnc54)cc3)CC2)ccn1 [Compound 36A]	12.7%	58.0%
18 nM	0.6 nM	Nc1cc(CN2CCC(Oc3ccc(-n4c(-c5ncccc5F)nc5cccnc54)cc3)CC2)ccn1 [Compound 69A]		

From patent US7638531B2, “Phenoxypiperidines and analogs thereof useful as histamine H3 antagonists” (Schering Corporation, priority 2005, dated 2009)
